The values that follow come from US20040260071A1, “Benzophene-linked crf and crf-like peptides for covalent labeling of corticotropin-releasing factor crf binding protein” (priority 2001, published 2004).

One test deals with T1, CRFBP (Rattus norvegicus, UniProt P24388).
T1 sequence (P24388 25-322): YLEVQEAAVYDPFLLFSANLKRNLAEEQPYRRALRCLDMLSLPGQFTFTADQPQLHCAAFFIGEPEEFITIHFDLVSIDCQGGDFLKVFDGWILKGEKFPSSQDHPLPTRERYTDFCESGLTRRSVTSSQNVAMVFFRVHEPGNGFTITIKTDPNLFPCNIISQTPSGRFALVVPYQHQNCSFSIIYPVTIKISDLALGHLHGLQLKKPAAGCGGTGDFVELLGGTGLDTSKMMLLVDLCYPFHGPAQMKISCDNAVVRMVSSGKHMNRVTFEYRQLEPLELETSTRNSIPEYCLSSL
The conditions noted are these: relative to Svg; cited from earlier work.

The target in the next test is T2, rCRFBP (Rattus norvegicus, UniProt P24388).
T2 construct: made in house; host or cells: HEK 293 cells, stably transfected (pcDNA3); serum-free conditioned medium used directly
T2 sequence (P24388 25-322): T1 sequence (P24388 25-322)
Description: Scintillation proximity assay with [125I-Tyr0]h/rCRF as radioligand, binding to rCRFBP. The settings on record: Example 8; 95% CI given alongside; read-out: IC50 (affinity to rCRFBP). From the text: Recombinant rCRFBP containing a C-terminal His-tag was produced in human embryonic kidney (HEK) 293 cells under serum-free conditions (45).

Non-standard residues stand in square brackets, D forms with d. Residues, ends and D or L forms follow the SMILES beside them. Bpa = N[C@@H](Cc1ccc(C(=O)c2ccccc2)cc1)C(=O)O

Consider [Ala^21]Svg, for which, at CRFBP, the “Increase of affinity to CRFBP by replacement of Glu^21 in Svg by Ala” value was “two orders of magnitude”. Consider `CC[C@H](C)[C@H](N)C(=O)N[C@@H](CO)C(=O)N[C@@H](CC(C)C)C(=O)N[C@@H](CC(=O)O)C(=O)N[C@@H](CC(C)C)C(=O)N[C@H](C(=O)N[C@@H](Cc1ccccc1)C(=O)N[C@@H](Cc1c[nH]cn1)C(=O)N[C@@H](CC(C)C)C(=O)N[C@@H](CC(C)C)C(=O)N[C@@H](CCCNC(=N)N)C(=O)N[C@@H](CCC(=O)O)C(=O)N[C@H](C(=O)N[C@@H](CC(C)C)C(=O)N[C@@H](CCC(=O)O)C(=O)N[C@@H](CCSC)C(=O)N[C@@H](C)C(=O)N[C@@H](CCCNC(=N)N)C(=O)N[C@@H](C)C(=O)N[C@@H](CCC(=O)O)C(=O)N[C@@H](CCC(N)=O)C(=O)N[C@@H](CC(C)C)C(=O)N[C@@H](C)C(=O)N[C@@H](CCC(N)=O)C(=O)N[C@@H](CCC(N)=O)C(=O)N[C@@H](C)C(=O)N[C@@H](Cc1ccc(C(=O)c2ccccc2)cc1)C(=O)N[C@@H](CO)C(=O)O)C(C)C)[C@@H](C)O` [Compound 14, [pBPhe^32]h/rCRF^6-33] (H-ISLDLTFHLLREVLEMARAEQLAQQA[Bpa]S-OH; N-terminus assumed), for which the IC50 on rCRFBP came to 2.1 nM.
